Experimental data: patent US20170189504A1, “NOVEL PEPTIDES AND COMBINATION OF PEPTIDES FOR USE IN IMMUNOTHERAPY AGAINST VARIOUS CANCERS” (immatics biotechnologies GmbH, priority 2015, published 2017)

The substances below were run on HLA-A*24 (assay: MHC binding assay, UV-ligand exchange with β2m ELISA, HLA-A*24 (Table 21)). Conditions: binding to HLA-A*24 ranged by peptide exchange yield (UV-ligand exchange, β2m ELISA).
Parameters: species or system human
From the text: (§1) Candidate peptides for T cell based therapies according to the present invention were further tested for their MHC binding capacity (affinity). The individual peptide-MHC complexes were produced by UV-ligand exchange, where a UV-sensitive peptide is cleaved upon UV-irradiation, and exchanged with the peptide of interest as analyzed. Only peptide candidates that can effectively bind and stabilize the peptide-receptive MHC molecules prevent dissociation of the MHC complexes. To determine the yield of the exchange reaction, an ELISA was performed based on the detection of the light chain ((β2m) of stabilized MHC complexes. The assay was performed as generally described in Rodenko et al. (Rodenko et al., 2006).
(§2) 96 well MAXISorp plates (NUNC) were coated over night with 2 ug/ml streptavidin in PBS at room temperature, washed 4× and blocked for 1 h at 37° C. in 2% BSA containing blocking buffer. Refolded HLA-A*02:01/MLA-001 monomers served as standards, covering the range of 15-500 ng/ml. Peptide-MHC monomers of the UV-exchange reaction were diluted 100 fold in blocking buffer. Samples were incubated for 1 h at 37° C., washed four times, incubated with 2 ug/ml HRP conjugated anti-β2m for 1 h at 37° C., washed again and detected with TMB solution that is stopped with […]. Absorption was measured at 450 nm. Candidate peptides that show a high exchange yield (preferably higher than 50%, most preferred higher than 75%) are generally preferred for a generation and production of antibodies or fragments thereof, and/or T cell receptors or fragments thereof, as they show sufficient avidity to the MHC molecules and prevent dissociation of the MHC complexes.

| Substance | Peptide exchange |
| --- | --- |
| 174 (VYVGGGQIIHL; listed as Homo sapiens) [compound 174] | +++ (50%-75% = +++) |
| 203 (FYSRLLQKF; listed as Homo sapiens) [compound 203] | +++ (50%-75% = +++) |
| 190 (GFFIFNERF; listed as Homo sapiens) [compound 190] | +++ (50%-75% = +++) |
| 211 (YYLEVGKTLI; listed as Homo sapiens) [compound 211] | ++++ (≧75% = ++++) |
| 202 (VYWDSAGAAHF; listed as Homo sapiens) [compound 202] | ++++ (≧75% = ++++) |
| 181 (LYLDIINLF; listed as Homo sapiens) [compound 181] | ++++ (≧75% = ++++) |
| 194 (EFGSLHLEFL; listed as Homo sapiens) [compound 194] | + (<20% = +) |
| 209 (TYKDEGNDYF; listed as Homo sapiens) [compound 209] | +++ (50%-75% = +++) |
| 210 (IYTMIYRNL; listed as Homo sapiens) [compound 210] | ++++ (≧75% = ++++) |
| 195 (TYSVSFPMF; listed as Homo sapiens) [compound 195] | ++++ (≧75% = ++++) |
| 189 (WYVNGVNYF; listed as Homo sapiens) [compound 189] | ++ (20%-49% = ++) |
| 192 (SYALLTYMI; listed as Homo sapiens) [compound 192] | ++++ (≧75% = ++++) |
| 188 (RYFKGLVF; listed as Homo sapiens) [compound 188] | +++ (50%-75% = +++) |
| 214 (LYLKLWNLI; listed as Homo sapiens) [compound 214] | +++ (50%-75% = +++) |
| 171 (LFIPSSKLLFL; listed as Homo sapiens) [compound 171] | +++ (50%-75% = +++) |
| 191 (VFKASKITF; listed as Homo sapiens) [compound 191] | +++ (50%-75% = +++) |
| 186 (IFPQFLYQF; listed as Homo sapiens) [compound 186] | ++++ (≧75% = ++++) |

| Substance | Peptide exchange |
| --- | --- |
| 179 (MYDSYWRQF; listed as Homo sapiens) [compound 179] | ++++ (≧75% = ++++) |
| 172 (TYTTVPRVAF; listed as Homo sapiens) [compound 172] | ++++ (≧75% = ++++) |
| 208 (TYTQDFNKF; listed as Homo sapiens) [compound 208] | +++ (50%-75% = +++) |
| 185 (IYKVGAPTI; listed as Homo sapiens) [compound 185] | +++ (50%-75% = +++) |
| 177 (VYPWLGALL; listed as Homo sapiens) [compound 177] | ++++ (≧75% = ++++) |
| 184 (VFQNFPLLF; listed as Homo sapiens) [compound 184] | ++++ (≧75% = ++++) |
| 182 (IYQLDTASI; listed as Homo sapiens) [compound 182] | +++ (50%-75% = +++) |
| 216 (QYSSVFKSL; listed as Homo sapiens) [compound 216] | ++++ (≧75% = ++++) |
| 198 (LYLDKATLI; listed as Homo sapiens) [compound 198] | +++ (50%-75% = +++) |
| 164 (KFSSFSLFF; listed as Homo sapiens) [compound 164] | +++ (50%-75% = +++) |
| 206 (EYQENFLSF; listed as Homo sapiens) [compound 206] | +++ (50%-75% = +++) |
| 201 (IYATEAHVF; listed as Homo sapiens) [compound 201] | +++ (50%-75% = +++) |
| 180 (IYDDSFIRPVTF; listed as Homo sapiens) [compound 180] | +++ (50%-75% = +++) |
| 193 (RFHPTPLLL; listed as Homo sapiens) [compound 193] | ++++ (≧75% = ++++) |
| 215 (YFDKVVTL; listed as Homo sapiens) [compound 215] | ++ (20%-49% = ++) |
| 178 (IFIEVFSHF; listed as Homo sapiens) [compound 178] | +++ (50%-75% = +++) |

Second part, the substance after the results:

| Peptide exchange | Substance |
| --- | --- |
| ++++ (≧75% = ++++) | 267 (KYMVYPQTF; listed as Homo sapiens) [compound 267] |
| +++ (50%-75% = +++) | 223 (KYIPYKYVI; listed as Homo sapiens) [compound 223] |
| +++ (50%-75% = +++) | 284 (RYLNKAFHI; listed as Homo sapiens) [compound 284] |
| ++++ (≧75% = ++++) | 276 (VYGFQWRHF; listed as Homo sapiens) [compound 276] |
| ++++ (≧75% = ++++) | 217 (FFPPTRQMGLLF; listed as Homo sapiens) [compound 217] |
| +++ (50%-75% = +++) | 270 (NYYEVHKELF; listed as Homo sapiens) [compound 270] |
| +++ (50%-75% = +++) | 273 (TYIKPISKL; listed as Homo sapiens) [compound 273] |
| ++++ (≧75% = ++++) | 271 (LYHDIFSRL; listed as Homo sapiens) [compound 271] |
| +++ (50%-75% = +++) | 219 (EYPLVINTL; listed as Homo sapiens) [compound 219] |
| ++++ (≧75% = ++++) | 289 (KYPVEWAKF; listed as Homo sapiens) [compound 289] |
| +++ (50%-75% = +++) | 288 (VYVSDIQEL; listed as Homo sapiens) [compound 288] |
| +++ (50%-75% = +++) | 226 (VYRDETGELF; listed as Homo sapiens) [compound 226] |
| ++++ (≧75% = ++++) | 278 (RYISDQLFTNF; listed as Homo sapiens) [compound 278] |
| ++++ (≧75% = ++++) | 280 (RYPDNLKHLYL; listed as Homo sapiens) [compound 280] |
| ++ (20%-49% = ++) | 286 (RYPDNLKHL; listed as Homo sapiens) [compound 286] |
| ++++ (≧75% = ++++) | 272 (QYLQDAYSF; listed as Homo sapiens) [compound 272] |
| +++ (50%-75% = +++) | 225 (YYVYIMNHL; listed as Homo sapiens) [compound 225] |
| ++++ (≧75% = ++++) | 282 (KFVDSTFYL; listed as Homo sapiens) [compound 282] |
| +++ (50%-75% = +++) | 221 (RYSTGLAGNLL; listed as Homo sapiens) [compound 221] |
| +++ (50%-75% = +++) | 283 (TYGDAGLTYTF; listed as Homo sapiens) [compound 283] |
| ++++ (≧75% = ++++) | 274 (AYLHSHALI; listed as Homo sapiens) [compound 274] |
| +++ (50%-75% = +++) | 275 (EYINQGDLHEF; listed as Homo sapiens) [compound 275] |

Each substance was assayed on HLA-A*02 (assay: MHC binding assay, UV-ligand exchange with β2m ELISA, HLA-A*02 (Table 20)). Conditions: binding to HLA-A*02 ranged by peptide exchange yield (UV-ligand exchange, β2m ELISA).
Parameters: species or system human
From the text: as §1, §2

| Substance | Peptide exchange |
| --- | --- |
| 157 (TLTSLLAQA; listed as Homo sapiens) [compound 157] | +++ (50%-75% = +++) |
| 115 (SLDPDTLPAV; listed as Homo sapiens) [compound 115] | ++ (20%-49% = ++) |
| 129 (RLQDILWFL; listed as Homo sapiens) [compound 129] | ++++ (≧75% = ++++) |
| 154 (RLLGTEFQV; listed as Homo sapiens) [compound 154] | +++ (50%-75% = +++) |
| 112 (SLGKFTFDV; listed as Homo sapiens) [compound 112] | ++++ (≧75% = ++++) |
| 94 (LLLPAVPVGA; listed as Homo sapiens) [compound 94] | +++ (50%-75% = +++) |
| 16 (YTLDIPVLFGV; listed as Homo sapiens) [compound 16] | ++++ (≧75% = ++++) |
| 84 (ALCPRIHEV; listed as Homo sapiens) [compound 84] | ++++ (≧75% = ++++) |
| 143 (ALLPELREV; listed as Homo sapiens) [compound 143] | +++ (50%-75% = +++) |
| 98 (RLFPDFFTRVAL; listed as Homo sapiens) [compound 98] | ++ (20%-49% = ++) |
| 125 (SLADYEHFV; listed as Homo sapiens) [compound 125] | ++++ (≧75% = ++++) |
| 50 (ILFHGVFYA; listed as Homo sapiens) [compound 50] | +++ (50%-75% = +++) |
| 33 (YIKTELISV; listed as Homo sapiens) [compound 33] | +++ (50%-75% = +++) |
| 63 (SQIPAQPSV; listed as Homo sapiens) [compound 63] | ++ (20%-49% = ++) |
| 61 (AIVKEIVNI; listed as Homo sapiens) [compound 61] | ++ (20%-49% = ++) |
| 99 (YLLQSVNQLLL; listed as Homo sapiens) [compound 99] | ++ (20%-49% = ++) |
